pIC50: −log10 of the molar value.
What was measured:
[1] = system: KM12 wild type colon carcinoma cell line harboring the TPM3-NTRK1 fusion protein; assay: NTRK wild type cellular assay (KM12, CellTiter-Glo); format: cell-based; settings: KM12 wild type cells, 72 hr
Experimental: (§1) NTRK Wild Type and G595R Mutant Cellular Assays Protocol
(§2) KM12 wild type colon carcinoma cell line harboring the TPM3-NTRK1 fusion protein was obtained from the National Cancer Institute (NCI). This line has been previously shown to be dependent upon the NTRK activity derived from the NTRK fusion protein for growth and survival. […] Cells were first plated in 384-well plates at 1000 cells/well in complete media (10% FBS and 1% pen/strep) and incubated overnight at 37° C. Cells were then dosed with test articles at varying concentrations using the Bravo liquid handling system. Concentrations ranged from 25 uM down to […] (4-fold dilutions, 10 concentrations total). Each compound was run in duplicate per plate. DMSO and staurosporine (25 uM) were included on each plate as negative and positive controls for growth inhibition. 72 hr after dosing, assay plates were developed using CellTiter-Glo (Promega) and resultant luminescence was read on the Envision plate reader. IC50 determinations were calculated using a 4-parameter curve fitting algorithm

[2] = system: KM12 Cliff (G595R) cell line; assay: NTRK G595R mutant cellular assay (KM12 Cliff, CellTiter-Glo); format: cell-based; settings: KM12 Cliff (G595R) cells, 72 hr
Experimental: as §1, §2

- pIC50 [1]: 7.00 to 8.00
Compound: N#Cc1cnn2cc(F)c(N3C[C@@H](F)C[C@@H]3c3cc(F)cc(C(N)=O)c3)nc12 [Compound 15]
- pIC50 [2]: 7.00 to 8.00
